# According to patent US5389638A, “Tetrahydroisoquinolines as alpha-2 antagonists and biogenic amine uptake inhibitors” (Abbott Laboratories, priority 1993, dated 1995):
# Structures can show the parent of a compound that is named as a salt. Where two headings read alike, the source gives them in different places.
# Legend:
# [1] = target: alpha-2 receptor; experiment: alpha-2 receptor radioligand binding, rat cerebral cortices, [3H]-rauwolscine; details: for Ki: rat cerebral cortices, [3H]-rauwolscine, read-out: Radioligand binding Ki α2; for Alpha-2 selectivity Ki α1/Ki α2: ratio Ki α1/Ki α2
# [2] = test system: serotonin (5-HT) uptake; experiment: inhibition of [3H]-amine uptake by synaptosome preparations, cortex (serotonin); type: biochemical, rat (male Sprague-Dawley); details: cortex synaptosomes, [3H]-amine approx. 100 nM, 4 min, 37° C.; read-out: Biogenic amine uptake IC50 5-HT
# Excerpt: (§1) The primary method of evaluation of biogenic amine uptake activity has been the in vitro determination of the inhibition of radioactive amine uptake by synaptosome preparations of brain tissue. Basic procedures used are those described by Snyder and Coyle (Snyder, S. H. and J. T. Coyle, Regional Differences in ^3 H-Norepinephrine and ^3 H-Dopamine Uptake into Rat Brain Homogenates, Journal of Pharmacology and Experimental Therapeutics 1969, 165: 78-86) and Wong et al. (Wong, D. T., J-S. Horng and R. W. Fuller, Kinetics of Norepinephrine Accumulation into Synaptosomes of Rat Brain-Effects of Amphetamine and Chloroamphetamines, Biochemical Pharmacology 1973, 22:311-322). Briefly, male Sprague-Dawley rats were decapitated and regions of their brains dissected according to the procedures of Glowinski and Iversen (Glowinski, J. and L. L. Iversen, Regional Studies of Catecholamines in the Rat Brain--I: The Disposition of [^3 H]-Norepinephrine, [^3 H]-Dopamine and [^3 H]-DOPA in Various Regions of the Brain, Journal of Neurochemistry 1966, 13: 655-669). Hypothalamus (norepinephrine-), cortex (serotonin) and striatum (dopamine-uptake) were homogenized in 10, 5, and 20 volumes, respectively,of 0.32M sucrose using a Teflon/glass Potter-Elvehjem tissue grinder. Samples were centrifuged at 1000×G for 10 minutes and the supernatants harvested and used in the assay. Aliquots of tissue ([…]) were added to 750 mL of Kreb's solution (composition in mM; sodium chloride 118, potassium chloride 4.0, calcium chloride 1.13, potassium dihydrogen phosphate 1.12, magnesium sulfate 1.20, sodium bicarbonate 2.4, D-glucose 5.0, disodium ethylenediaminetetraacetic acid 1.5, ascorbic acid 1.0, and Pargyline, 12.5 mM, pH=7.4, aerated with 95% oxygen, 5% carbon dioxide), 50 mL of test compound diluted in 0.3 mM ascorbic acid, and […] [^3 H]-amine, final concentration approximately 100 nM. Tissues were incubated for 4 minutes at 37° C., followed by rapid vacuum filtration over Whatman GF/B filters and washed with 50 mM Tris-HCl (pH=7.4). Nonspecific uptake was estimated in duplicate samples incubated at 0 ° C. Data were analyzed as described previously (J. F. DeBemardis, D. J. Kerkman, D. L. Arendsen, S. A. Buckner, J. J. Kyncl, and A. A. Hancock, Conformationally Defined Adrenergic Agents. 5. Resolution, Absolute Configuration, and Pharmacological Characterization of the Enantiomers of 2-[5,6-Dihyroxy-1,2,3,4-tetrahydro-1-1-naphthyl]imidazoline: A Potent Agonist at a-Adrenoceptors, Journal of Medicinal Chemistry 1987, 30: 1011-1017).
# [3] = test system: dopamine uptake; experiment: inhibition of [3H]-amine uptake by synaptosome preparations, striatum (dopamine); type: biochemical, rat (male Sprague-Dawley); details: striatum synaptosomes, [3H]-amine approx. 100 nM, 4 min, 37° C.; read-out: Biogenic amine uptake IC50 DA
# Excerpt: as §1
# [4] = target: T1, alpha-1 receptor (Rattus norvegicus, UniProt P15823); experiment: alpha-1 receptor radioligand binding, rat liver homogenates, [3H]-prazosin
# T1 sequence (P15823 1-515): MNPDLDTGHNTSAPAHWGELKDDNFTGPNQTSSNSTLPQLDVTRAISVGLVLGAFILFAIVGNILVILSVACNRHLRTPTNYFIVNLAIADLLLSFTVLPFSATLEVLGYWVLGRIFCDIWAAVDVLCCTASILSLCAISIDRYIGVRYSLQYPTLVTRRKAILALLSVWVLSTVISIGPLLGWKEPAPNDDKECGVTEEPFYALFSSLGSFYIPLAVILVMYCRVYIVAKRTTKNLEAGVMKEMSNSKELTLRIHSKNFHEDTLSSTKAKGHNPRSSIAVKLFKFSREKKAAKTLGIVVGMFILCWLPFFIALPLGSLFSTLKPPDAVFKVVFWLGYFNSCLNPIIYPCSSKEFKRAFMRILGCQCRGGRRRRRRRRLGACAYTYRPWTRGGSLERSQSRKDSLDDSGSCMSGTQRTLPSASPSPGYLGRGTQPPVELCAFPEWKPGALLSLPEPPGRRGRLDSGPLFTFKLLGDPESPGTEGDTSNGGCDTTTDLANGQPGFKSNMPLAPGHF
# [5] = test system: norepinephrine uptake; experiment: inhibition of [3H]-amine uptake by synaptosome preparations, hypothalamus (norepinephrine); type: biochemical, rat (male Sprague-Dawley); details: hypothalamus synaptosomes, [3H]-amine approx. 100 nM, 4 min, 37° C.; read-out: Biogenic amine uptake IC50 NE
# Excerpt: as §1
SMILES,Ki [1],Alpha-2 selectivity Ki α1/Ki α2 [1],IC50 [2],IC50 [3],Ki [4],IC50 [5],"Ki ([4]; read-out: Radioligand binding Ki α1, rat liver homogenates, [3H]-prazosin)"
"COc1ccc2c(c1)CCN(C)C2CN(C)CCc1ccccc1 (stereo not shown) [Example 2, 6-Methoxy-2-methyl-1-((N-methyl-N-(2-phenylethyl)amino)methyl)-1,2,3,4-tetrahydroisoquinoline dihydrochloride]",4.6 nM,38,7710 nM,26500 nM,175 nM,1240 nM,–
"CN(CCc1ccccc1)C[C@H]1c2ccc3c(c2CCN1C)OCO3 [Example 12, 5,6-Methylenedioxy-2-methyl-1(R)-(((N-methyl-N-phenylethyl)amino)methyl)-1,2,3,4-tetrahydroisoquinoline dihydrochloride]",0.98 nM,1040,1410 nM,25500 nM,1020 nM,1290 nM,–
"CNCCC(Oc1ccc(C(F)(F)F)cc1)c1ccccc1 (stereo not shown) [Fluoxetine, reference compound]",–,–,–,15200 nM,–,1310 nM,–
"CN1CCc2c(ccc3c2OCO3)[C@H]1CN1CC[C@H](c2ccccc2)C1 [Example 10, 5,6-Methylenedioxy-2-methyl-1(S)-[3'(R)-phenylpyrrolidino]methyl-1,2,3,4-tetrahydroisoquinoline dihydrochloride]",20.2 nM,18.5,754 nM,11700 nM,374 nM,214 nM,–
"COC(=O)[C@H]1[C@H]2C[C@H]3c4[nH]c5ccccc5c4CCN3C[C@H]2CC[C@@H]1O [Rauw*, Rauwolscine, reference compound]",–,–,–,–,450 nM,> 100 nM,–
"CN1CCc2c(ccc3c2OCO3)C1CN1CCC(c2ccccc2)C1 (stereo not shown) [Example 5, 5,6-Methylenedioxy-2-methyl-1-N-(3-phenylpyrrolinodino)methyl-1,2,3,4-tetrahydroisoquinoline dihydrochloride]",4.3 nM,42,2030 nM,11400 nM,180 nM,249 nM,–
"CN1CCc2cc3c(cc2C1CN1CCC(c2ccccc2)C1)OCO3 (stereo not shown) [Example 6, 6,7-Methylenedioxy-2-methyl-1-(3-phenylpyrrolidino)methyl-1,2,3,4-tetrahydroisoquinoline dimethanesulfonate]",11.4 nM,6,–,–,72 nM,–,–
"CN1CCc2c(ccc3c2OCO3)[C@H]1CN1CC[C@@H](c2ccccc2)C1 [Example 11, 5,6-Methylenedioxy-2-methyl-1(S)-[3'(S)-phenylpyrrolidino]methyl-1,2,3,4-tetrahydroisoquinoline dihydrochloride]",32.5 nM,4.8,1700 nM,4950 nM,157 nM,116 nM,–
"CN1CCc2c(ccc3c2OCO3)[C@@H]1CN1CC[C@@H](c2ccccc2)C1 [Example 9, 5,6-Methylenedioxy-2-methyl-1(R)-[3'(S)-phenylpyrrolidino]methyl-1,2,3,4-tetrahydroisoquinoline dihyrochloride]",2.1 nM,80,1580 nM,9540 nM,168 nM,426 nM,–
"CN(CCc1ccccc1)CC1c2ccc3c(c2CCN1C)OCO3 (stereo not shown) [Example 4, 5,6-Methylenedioxy-2-methyl-1-((N-methyl-N-(2-phenylethyl)amino)methyl)-1,2,3,4-tetrahydroisoquinoline dihydrochloride]",2.6 nM,238,2600 nM,24700 nM,621 nM,885 nM,–
"COc1ccc2c(c1)CCN(C)C2CN1CCC(c2ccccc2)C1 (stereo not shown) [Example 1, 6-Methoxy-2-methyl-1-(3-phenylpyrrolidino)methyl-1,2,3,4-tetrahydroisoquinoline dihydrochloride]",6.2 nM,19,9180 nM,28300 nM,120 nM,4430 nM,–
"CN(CCc1ccccc1)C[C@@H]1c2ccc3c(c2CCN1C)OCO3 [Example 13, 5,6-Methylenedioxy-2-methyl-1(S)-(((N-methyl-N-phenylethyl)amino)methyl-1,2,3,4-tetrahydroisoquinolinedihydrochloride]",7.1 nM,76,2890 nM,10600 nM,542 nM,210 nM,–
"CN(CCc1ccccc1)CC1c2cc3c(cc2CCN1C)OCO3 (stereo not shown) [Example 7, 6,7-Methylenedioxy-2-methyl-1-((N-methyl-N-(2-phenylethyl)amino)methyl)-1,2,3,4-tetrahydroisoquinoline dihydrochloride]",6.4 nM,96,6270 nM,49800 nM,613 nM,589 nM,–
"CN1CCc2c(ccc3c2OCO3)[C@@H]1CN1CC[C@H](c2ccccc2)C1 [Example 8, 5,6-Methylenedioxy-2-methyl-1(R)-(3'(R)-phenylpyrrolidino)methyl-1,2,3,4-tetrahydroisoquinoline dihydrochloride]",2.5 nM,178,1110 nM,9300 nM,–,489 nM,446 nM
"COc1cccc2c1CCN(C)C2CN1CCC(c2ccccc2)C1 (stereo not shown) [Example 3, 5-Methoxy-2-methyl-1-(3-phenylpyrrolidino)methyl-1,2,3,4-tetrahydroisoquinoline dihydrochloride]",6 nM,51,4450 nM,9400 nM,306 nM,621 nM,–
